Reference: ChEMBL document CHEMBL1138165, “Structure-activity studies of quinuclidinone analogs as anti-proliferative agents in lung cancer cell lines” (2006)
Active and inactive are the calls of the source. No cut-off for these calls is given here.

Experiments:
NCI-H1299 [1] = test: Viability of H1299 (p53 null) cells at 4 mM by MTT assay; type: functional; details: Homo sapiens
NCI-H1299 [2] = test: Viability of H1299 (p53 null) cells in presence of 4 Gy at 4 mM by MTT assay; type: functional; details: Homo sapiens

Compound | Activity (NCI-H1299 [1]) | GI50 (NCI-H1299 [2]) [µM] | GI50 (NCI-H1299 [1]) [µM]
OCC1(CO)C(O)C2CCN1CC2 (stereo not drawn) | inactive |  | 
O=C1C2CCN(CC2)C1(CO)CO | Active |  | 
O=C1C2CCN(CC2)C12COC(c1ccccc1)OC2 (stereo not drawn) |  | 4.49 | 17.3
CC(=O)OCC1(COC(C)=O)C(=O)C2CCN1CC2 | Active |  | 
CC1(C)OCC2(CO1)C(=O)C1CCN2CC1 |  | 4.74 | 19.2
O=C1CN2CCC1CC2 | inactive |  | 
